The text below walks through data of patent US8609656B2, “Heteroarylphenylurea derivative” (Chugai Seiyaku Kabushiki Kaisha, priority 2004, dated 2013).

Series [1] addresses T1, recombinant Raf-1 protein (activated type GST-Raf-1) (Homo sapiens, UniProt P04049).
T1 construct: fused on or other part: GST tag fused to Raf-1
In words: RAF-1 enzyme inhibition test (33P incorporation into MEK 1 protein). The series is classed as biochemical. The settings on record: 10 μM ATP, GST-MEK1 substrate, 30° C., 45 minutes; read-out: Raf-1 Enzyme Inhibition, 50% Enzyme Inhibition Concentration (IC50 value). The procedure: RAF-1 Enzyme Inhibition Test
With respect to the compounds relating to the present invention and the known compound (BAY 43-9006):
[drawing 660] the Raf-1 protein inhibition activity was measured. The enzymatic reaction was measured by incorporation of ^33P-phosphoric acid into MEK 1 protein by a recombinant Raf-1 protein. The activity was measured by preparing 50 μL of a reaction solution containing a dimethyl sulfoxide solution of the compound relating to the present invention or the compound BAY 43-9006 at a varied concentration [as the final concentration, the reaction solution containing […] of TRIS hydrochloric buffer (pH 7.5), 1 mM of dithiothreitol, 100 mM of sodium chloride, 10 mM of potassium fluoride, 1 mM of sodium vanadate, 10 mM of magnesium chloride, 10 μM of adenosine triphosphate (ATP, containing ^33P-ATP of 12580Bq), 2 μg of GST-MEK1 and 25 ng of an activated type GST-Raf-1]; keeping the reaction solution at 30° C. for 45 minutes; adding 100% trichloroacetic acid to the reaction solution in an amount twice the volume of the reaction solution to precipitate a proteinous component; recovering the precipitate on a glass filter; and measuring the radioactivity of the recovered product. The 50% inhibition concentration (IC50) was obtained from the inhibition ratio to a sample-free reference.
The compound BAYT 43-9006 was prepared on the basis of the description (Example 41) of WO 00/42012.

Series [2] in a line: Solubility to fasted state simulated intestinal fluid. Type of series: physicochemical. The settings on record: fassif, kinetic from dmso stock, fasted state simulated intestinal fluid (pH 6.5), 37° C. The procedure:
Method of Measuring Solubility to Fasted State Simulated Intestinal Fluid
To a 96-well plate, 2 μL of a dimethyl sulfoxide solution of the compound relating to the present invention or that of the compound BAY 43-9006 was poured at one time, respectively, and fasted state simulated intestinal fluid (pH 6.5) was added 200 μL by 200 μL, and the plate was shaken at 37° C. for 20 hours. The solution was filtered with a membrane filter and 101 μL of the filtrate was transferred to an UV plate, and 100 μL of a mixed solution of ethanol:water=2:1 was added thereto. On the other hand, as a standard solution, 2 μL of a dimethyl sulfoxide solution was added to a solution containing 4 μL of dimethyl sulfoxide, 400 μL of ethanol and 200 μL of water and the obtained solution was transferred 101 μL by 101 μL to the UV plate and to this UV plate, the simulated fasting bile-containing intestinal juice (pH 6.5) was added 100 μL by 100 μL. The solubility was calculated by the following equation. Solubility=(absorbance of sample solution-blank)/(absorbance of standard solution-blank)×[…]
165 μL is a concentration of the standard solution.
Composition of Fasted State Simulated Intestinal Fluid
Fasted state simulated intestinal fluid was prepared in accordance with E. Galia et al., Pharm. Res., 698, 1998.
To about 90 mL of water, 161 mg of taurocholic acid, 59 mg of L-α-phosphatidylcholine, 0.39 g of potassium dihydrogenphosphate and 0.77 g of potassium chloride were added and the pH of the mixture solution […] and the mixture solution was filtered with a membrane filter.

Values after ≈ are worked out from the molar mass of the structure shown. Counter-ions that a name gives are not always drawn.

T1 sequence (P04049 349-648 limits assumed): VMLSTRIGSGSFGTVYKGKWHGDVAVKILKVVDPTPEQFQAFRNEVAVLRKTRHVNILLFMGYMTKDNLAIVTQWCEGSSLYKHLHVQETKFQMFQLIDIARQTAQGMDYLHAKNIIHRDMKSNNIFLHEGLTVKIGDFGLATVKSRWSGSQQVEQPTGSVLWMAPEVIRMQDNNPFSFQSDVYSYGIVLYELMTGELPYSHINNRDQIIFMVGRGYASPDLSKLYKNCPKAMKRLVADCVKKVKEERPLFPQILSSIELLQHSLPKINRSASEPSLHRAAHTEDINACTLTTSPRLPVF

Consider `CC(=O)Oc1cccc2c1ccn2-c1ccc(NC(=O)Nc2ccc(Cl)c(C(F)(F)F)c2)cc1` [Table 1, Compound 18, Acetic acid 1-{4-[3-(4-chloro-3-(trifluoromethyl)phenyl)ureido]phenyl}-1H-indol-4-yl ester], for which the IC50 in series [1] is 47 nM.
For `CNCCOc1cccc2c1ccn2-c1ccc(NC(=O)Nc2ccc(Cl)c(C(F)(F)F)c2)cc1.Cl` [Table 1, Compound 21, 1-(4-Chloro-3-(trifluoromethyl)phenyl)-3-{4-[4-(2-methylamino-ethoxy)-indol-1-yl]phenyl}urea hydrochloride], the solubility at 20 h in series [2] was 24 µg/mL.
Take `Nc1ncnc2c1ncn2-c1ccc(NC(=O)Nc2ccc(Cl)c(C(F)(F)F)c2)cc1` [Table 1, Compound 30, 1-[4-(6-Aminopurin-9-yl)phenyl]-3-(4-chloro-3-(trifluoromethyl)phenyl)urea hydrochloride]: in series [1], the IC50 is 33 nM.
Molecule `Cl.Nc1ncc2ncn(-c3ccc(NC(=O)Nc4ccc(Cl)c(C(F)(F)F)c4)cc3)c2n1` [Table 1, Compound 34, 1-[4-(2-Aminopurin-9-yl)phenyl]-3-(4-chloro-3-(trifluoromethyl)phenyl)urea hydrochloride] showed a solubility at 20 h in series [2] of 34 µg/mL.
With `O=C(Nc1ccc(Cl)c(C(F)(F)F)c1)N(O)c1ccc(-n2cnc3ncncc32)cc1` [Table 1, Compound 46, 1-(4-Chloro-3-(trifluoromethyl)phenyl)-3-hydroxy-3-(4-purin-7-ylphenyl)urea], in series [1], the IC50 worked out at 67 nM.
On to `CN(C)CCNC(=O)c1nccc2c1ncn2-c1ccc(NC(=O)Nc2ccc(Cl)c(C(F)(F)F)c2)cc1` [Table 1, Compound 92, 1-(4-[3-(4-Chloro-3-(trifluoro-methyl)phenyl)ureido]phenyl}-1H-imidazo[4,5-c]pyridine-4-carboxylic acid (2-dimethyl-aminoethyl)amide], for which, in series [2], the solubility at 20 h was 76 µg/mL (≈ 139 µM).
The same measure, in the same setting: under `COCCOCCOCC(=O)Nc1ncnc2c1ncn2-c1ccc(NC(=O)Nc2ccc(Cl)c(C(F)(F)F)c2)cc1` [Table 1, Compound 109, N-(9-{4-[3-(4-Chloro-3-(tri-fluoromethyl)phenyl)ureido]-phenyl}-9H-purin-6-yl)-2-[2-(2-methoxyethoxy)ethoxy]acetamide] stands 39 µg/mL (≈ 64.1 µM); under `COCCOC(=O)Nc1ncnc2c1ncn2-c1ccc(NC(=O)Nc2ccc(Cl)c(C(F)(F)F)c2)cc1` [Table 1, Compound 115, (9-{4-[3-(4-Chloro-3-(tri-fluoromethyl)phenyl)ureido]-phenyl}-9H-purin-6-yl)carbamic acid 2-methoxyethyl ester], 19 µg/mL (≈ 34.6 µM).
In the case of `C=Cc1nc2c(N)ncnc2n1-c1ccc(NC(=O)Nc2ccc(Cl)c(C(F)(F)F)c2)cc1` [Table 2, Compound 8, 1-[4-(6-Amino-8-vinylpurin-9-yl)phenyl]-3-(4-chloro-3-(tri-fluoromethyl)phenyl)urea], the IC50 in series [1] stood at 29 nM.
Molecule `O=C(Nc1ccc(-n2cnc3c(NCCN4CCOCC4)ncnc32)cc1)Nc1ccc(Cl)c(C(F)(F)F)c1` [Table 2, Compound 11, 1-(4-Chloro-3-(trifluoromethyl)-phenyl)-3-{4-[6-(2-morpholin-4-yl-ethylamino)purin-9-yl]-phenyl}urea] registered a solubility at 20 h in series [2] of 38 µg/mL (≈ 67.7 µM).
In series [2], `CN(C)Cc1nc2c(N)ncnc2n1-c1ccc(NC(=O)Nc2ccc(Cl)c(C(F)(F)F)c2)cc1` [Table 2, Compound 12, 1-[4-(6-Amino-8-dimethylamino-methyl-purin-9-yl)phenyl]-3-(4-chloro-3-(trifluoromethyl)-phenyl)urea] returned a solubility at 20 h of 265 µg/mL (≈ 525 µM).
As for `C=Cc1nc2c(NC(=O)NCCC)ncnc2n1-c1ccc(NC(=O)Nc2ccc(Cl)c(C(F)(F)F)c2)cc1` [Table 2, Compound 13, 1-(9-{4-[3-(4-Chloro-3-(tri-fluoromethyl)phenyl)ureido]-phenyl}-8-vinyl-9H-purin-6-yl)-3-propylurea], the IC50 in series [1] was found to be 15 nM.
In series [2], `CNc1ncnc2c1nc(OC)n2-c1ccc(NC(=O)Nc2ccc(Cl)c(C(F)(F)F)c2)cc1` [Table 2, Compound 21, 1-(4-Chloro-3-(trifluoromethyl)-phenyl)-3-[4-(8-methoxy-6-(methylamino)purin-9-yl)phenyl]-urea] registered a solubility at 20 h of 120 µg/mL (≈ 244 µM).
As for `CN1CCN(Cc2cc(NC(=O)Nc3ccc(-n4c(I)nc5c(N)ncnc54)cc3)cc(C(F)(F)F)c2)CC1` [Table 2, Compound 27], the IC50 in series [1] was 67 nM.
Take `CCc1nc2c(N)ncnc2n1-c1ccc(NC(=O)Nc2cc(CN3CCN(C)CC3)cc(C(F)(F)F)c2)cc1` [Table 2, Compound 32]: in series [2], the solubility at 20 h is 175 µg/mL (≈ 316 µM).
In turn, `CN1CCN(Cc2cc(NC(=O)Nc3ccc(-n4cnc5c(C(N)=O)nccc54)cc3)cc(C(F)(F)F)c2)CC1` [Table 2, Compound 33, 1-(4-{3-[3-(4-Methylpiperazin-1-ylmethyl)-5-(trifluoromethyl)-phenyl]ureido}-phenyl)-1H-imidazo[4,5-c]pyridine-4-carboxamide] registered a solubility at 20 h in series [2] of 193 µg/mL (≈ 349 µM). This solubility at 20 h and that of the molecule before are within 1.5-fold of each other.
The molecule `CN(C)CCN(C)c1ccc(NC(=O)Nc2ccc(-n3cnc4c(N)ncnc43)cc2)cc1C(F)(F)F` [Table 2, Compound 35, 1-[4-(6-Aminopurin-9-yl)phenyl]-3-{4-[(2-dimetylaminoethyl)-methylamino]-3-(trifluoro-methyl)phenyl]urea] returned a solubility at 20 h in series [2] of 149 µg/mL (≈ 290 µM).
Still for that read-out and setting: under `CNc1ncnc2c1ncn2-c1ccc(NC(=O)Nc2cc(C(=O)N3CCN(C)CC3)cc(C(F)(F)F)c2)cc1` [Table 2, Compound 39] stands 48 µg/mL (≈ 86.7 µM).
For `CNc1ncnc2c1ncn2-c1ccc(NC(=O)Nc2cc(C(=O)NCCN(C)C)cc(C(F)(F)F)c2)cc1` [Table 2, Compound 40, N-(2-Dimethylaminoethyl)-3-{3-[4-(6-(methylamino)purin-9-yl)phenyl]ureido}-5-(trifluoromethyl)benzamide], in series [1], the IC50 was found to be 75 nM.
Same read-out and setting: for `CNc1ncnc2c1ncn2-c1ccc(NC(=O)Nc2cc(C(=O)NCC(O)CO)cc(C(F)(F)F)c2)cc1` (centres unmarked) [Table 2, Compound 57] the value was 130 nM; for `CNc1ncnc2c1ncn2-c1ccc(NC(=O)Nc2cc(CCN(C)C)cc(C(F)(F)F)c2)cc1` [Table 2, Compound 71, 1-[3-(2-Dimethylamino-ethyl)-5-(trifluoromethyl)phenyl]-3-[4-(6-(methylamino)purin-9-yl)phenyl]urea], 190 nM.
In series [2], `CNc1ncnc2c1ncn2-c1ccc(NC(=O)Nc2ccc(CCCN3CCCC3)c(C(F)(F)F)c2)cc1` [Table 2, Compound 77, 1-[4-(6-(Methylamino)purin-9-yl)phenyl]-3-[4-[3-pyrrolidin-1-yl-propyl]-3-(trifluoromethyl)phenyl]-urea] displayed a solubility at 20 h of 34 µg/mL (≈ 63.1 µM).
On the same count and under the same terms, for `CNc1ncnc2c1ncn2-c1ccc(NC(=O)Nc2ccc(CNCCN3CCCC3)c(C(F)(F)F)c2)cc1` [Table 3, Compound 15] the value was 104 µg/mL (≈ 188 µM); for `CNc1ncnc2c1ncn2-c1ccc(NC(=O)Nc2ccc(CCN(C)CCN(C)C)c(C(F)(F)F)c2)cc1` [Table 3, Compound 36, 1-(4-{2-[(2-(Dimethylamino)ethyl)-methylamino]-ethyl}-3-(trifluoromethyl)phenyl)-3-[4-(6-(methylamino)-purin-9-yl)phenyl]urea], 107 µg/mL (≈ 193 µM); for `CNc1ncnc2c1ncn2-c1ccc(NC(=O)Nc2ccc(CCN3CCN(C(C)C)CC3)c(C(F)(F)F)c2)cc1` [Table 3, Compound 37, 1-{4-[2-(4-Isopropyl-piperazin-1-yl)ethyl]-3-(trifluoromethyl)phenyl}-3-[4-(6-(methylamino)purin-9-yl)phenyl]urea], 193 µg/mL (≈ 332 µM).
In series [2], `CNc1ncnc2c1ncn2-c1ccc(NC(=O)Nc2ccc(CCN(C)CCCN(C)C)c(C(F)(F)F)c2)cc1` [Table 3, Compound 38, 1-(4-{2-[(3-(Dimethylamino)propyl)methylamino]ethyl}-3-(trifluoromethyl)phenyl)-3-[4-(6-(methylamino)purin-9-yl)phenyl]urea] had a solubility at 20 h of 147 µg/mL (≈ 258 µM).
